Experimental data taken from PubChem BioAssay (NCI).
Values joined by “and” are separate entries in the source; they are usually repeats but may differ in a detail not shown here. Equal entries are not always repeated.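 Briefly, cells in 96-well plates were exposed to five compound concentrations for 48 h, and endpoints were estimated by linear interpolation. GI50 is the concentration that inhibits growth by half. The concentration for full growth arrest is given as TGI.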

Assays:
Test in all cases: NCI anticancer screen, dose series, 48 h
HCC-2998 colon = tested on: HCC-2998 colon
LXFL 529 NSCLC = tested on: LXFL 529 NSCLC
SW-620 colon = tested on: SW-620 colon
SN12C renal = tested on: SN12C renal
SNB-19 CNS = tested on: SNB-19 CNS
SF-539 CNS = tested on: SF-539 CNS
DLD-1 colon = tested on: DLD-1 colon
SF-268 CNS = tested on: SF-268 CNS
UACC-257 melanoma = tested on: UACC-257 melanoma
HOP-62 NSCLC = tested on: HOP-62 NSCLC

Row | Structure (SMILES) | TGI (HCC-2998 colon) | TGI (LXFL 529 NSCLC) | TGI (SW-620 colon) | TGI (SN12C renal) | TGI (SNB-19 CNS) | TGI (SF-539 CNS) | TGI (DLD-1 colon) | TGI (SF-268 CNS) | TGI (UACC-257 melanoma) | TGI (HOP-62 NSCLC) | GI50 (SF-268 CNS) | GI50 (DLD-1 colon) | GI50 (HCC-2998 colon) | GI50 (SW-620 colon) | GI50 (SN12C renal) | GI50 (SNB-19 CNS) | GI50 (UACC-257 melanoma) | GI50 (SF-539 CNS) | GI50 (HOP-62 NSCLC) | GI50 (LXFL 529 NSCLC)
1 | CCCCC1=CSC(c2ccccc2)=C(c2ccccc2)S1 | > 100 µM | > 100 µM | > 100 µM | > 100 µM | > 100 µM | > 100 µM | > 100 µM |  |  |  |  |  |  |  |  |  |  |  |  | 
2 | Nc1nnc2c(-c3ccccc3)[nH]nc2n1 | > 100 µM | > 100 µM | > 100 µM | > 100 µM | > 100 µM | > 100 µM |  | 58.7 µM | > 100 µM |  |  |  |  |  |  |  |  |  |  | 
3 | Cc1ccc(NC(=O)CCc2nc(=S)[nH][nH]2)cc1 |  | > 100 µM | > 100 µM | > 100 µM | > 100 µM | > 100 µM | > 100 µM | > 100 µM | > 100 µM | > 100 µM |  |  |  |  |  |  |  |  |  | 
4 | Cn1c(CBr)nc2c1C(=O)c1nc(CBr)[nH]c(=O)c1C2=O |  | > 100 µM | > 100 µM | > 100 µM |  | > 100 µM | > 100 µM | > 100 µM |  |  |  |  |  |  |  |  |  |  |  | 
5 | O=C(O/N=C1\CCCC\C1=C/c1ccccc1)c1ccc([N+](=O)[O-])cc1 | > 100 µM | > 100 µM | > 100 µM | > 100 µM |  | > 100 µM | > 100 µM | > 100 µM |  | > 100 µM |  |  |  |  |  |  |  |  |  | 
6 | O=S1(=O)N2CN3CN(C2)CN1C3 | 571 µM | 34.1 µM | 57.8 µM and 113 µM | 158 µM | 856 µM |  | 96.8 µM and 97.5 µM | > 87.5 µM and 133 µM | 94.3 µM | 624 µM | 31.8 µM | 30.1 µM |  |  |  |  |  |  |  | 
7 | N#CCCn1[nH]c(=O)c(Cl)c(Cl)c1=O | 26 µM | 30.6 µM | 31.8 µM | 32.5 µM | 29 µM | 51.1 µM | 27 µM | 32 µM | 37.7 µM |  |  |  |  |  |  |  |  |  |  | 
8 | O=C(c1ccc(O)cc1O)C1C(c2ccc(O)cc2)OC(c2ccc(O)cc2)C1C(=O)c1ccc(O)cc1O (configuration not stated) | 33.3 µM | 34.7 µM | > 100 µM |  | 45.2 µM | 47.1 µM | > 100 µM | 42.5 µM | 39.7 µM | 22.9 µM |  |  |  |  |  |  |  |  |  | 
9 | C#Cc1cccc(Nc2ncnc3cc(NC(=O)CCl)ccc23)c1 | 8.46 µM |  | 3.08 µM | 4.81 µM | 6.03 µM | 6.82 µM |  | 8.55 µM | 8.12 µM | 6.77 µM | 3.3 µM |  | 4.16 µM | 0.832 µM | 1.29 µM | 2.96 µM | 3.76 µM | 3.48 µM | 3.22 µM | 
10 | Oc1ccc(Br)cc1C=Nc1cccc(C(F)(F)F)c1 | 60.1 µM |  | > 100 µM | > 100 µM | > 100 µM | 99.1 µM |  | > 100 µM | > 100 µM | > 100 µM |  |  |  |  |  |  |  |  |  | 
11 | COc1ccc(C(O)c2cc3c(N)c(C(=O)Nc4ccc(Cl)cc4)sc3nc2C)cc1 (configuration not stated) | 20.8 µM |  | 37.6 µM | 24.9 µM | 44.6 µM | 8.08 µM |  | 19.6 µM | 57.5 µM | 19.2 µM | 3.96 µM |  | 3.04 µM | 2.62 µM | 5.53 µM | 4.16 µM | 4.99 µM | 2.4 µM | 3.24 µM | 
12 | COc1cc2cc(Oc3ccc(NC(=O)Nc4cc(C(F)(F)F)cc(C(F)(F)F)c4)cc3)c(C)nc2cc1OCCN1CCOCC1 | 6.97 µM |  | 7.17 µM | 5.48 µM | 7.42 µM | 5.25 µM |  | 8.06 µM | 4.24 µM | 9.16 µM | 1.98 µM |  | 2.09 µM | 1.72 µM | 1.49 µM | 1.88 µM | 1.4 µM | 1.54 µM | 2.2 µM | 
13 | Clc1nccc2c(-c3csc(-c4c[nH]c5ccc(Br)cc45)n3)c[nH]c12 | 4.4 µM |  | 3.63 µM | 14.4 µM | 11.6 µM | 6.14 µM |  | 18 µM | 4.88 µM | 7.24 µM | 4.06 µM |  | 2.22 µM | 1.92 µM | 3.35 µM | 3.25 µM | 2.68 µM | 1.87 µM | 2.11 µM | 
14 | NC(N)=N/N=C/c1c(-c2ccsc2)nc2n1CCS2 | 31.4 µM |  | > 100 µM | 54.9 µM | > 100 µM | 30.3 µM |  | 82.2 µM | 53.1 µM | 52.8 µM | 18.4 µM |  | 16 µM | 33.2 µM | 15.5 µM | 26.9 µM | 20.8 µM | 14.4 µM | 19.8 µM | 
15 | O=C(CS(=O)(=O)c1nc2ccccc2nc1-c1ccccc1)Nc1ccc(F)cc1 | 26.9 µM |  | > 100 µM | > 100 µM | > 100 µM | 60.2 µM |  | > 100 µM | > 100 µM | > 100 µM | 91.8 µM |  | 13.3 µM | 46.6 µM | 33.9 µM | 98.9 µM | > 100 µM | 18.7 µM | > 100 µM | 
16 | c1ccc(-c2oc(-c3ccccc3)c(CN3CCCCC3)c2CN2CCCCC2)cc1 | 4.23 µM |  | 16.4 µM | 12.4 µM | 8.72 µM | 3.47 µM |  | 20.6 µM | 8.08 µM | 21.8 µM | 6.04 µM |  | 2.02 µM | 3.05 µM | 2.84 µM | 2.64 µM | 3 µM | 1.68 µM | 4.69 µM | 
17 | CN(C)CCNC(=O)c1cccc2c1nc(-c1ccc(F)cc1)c1ccccc12 | 16.7 µM |  | 14.8 µM | 16 µM | 20.2 µM | 13.8 µM | 15 µM | 21.8 µM | 11.2 µM | 12.9 µM |  |  |  |  |  |  |  |  |  | 
18 | CC(=O)C1CCN(c2ccccc2)C1 (configuration not stated) |  |  | > 100 µM | > 100 µM | > 100 µM | > 100 µM | > 100 µM | > 100 µM | > 100 µM | > 100 µM |  |  |  |  |  |  |  |  |  | 
19 | COc1cc2oc(-c3cccc(C(=O)Nc4ccc(Cl)cc4)c3)cc(=O)c2c(OC)c1OC | > 100 µM |  | > 100 µM | > 100 µM | > 100 µM | > 100 µM |  | > 100 µM | 5.72 µM | 9.89 µM | 4.66 µM |  | 3.05 µM | 4.87 µM | 3.49 µM | 6.35 µM | 2.53 µM | 2.56 µM | 2.66 µM | 
20 | CCN1CCN(c2nc(C)cc(N(CCCNc3ccnc4cc(Cl)ccc34)Cc3ccc4c(c3)OCO4)n2)CC1 | 3.85 µM |  | 3.12 µM | 5.55 µM | 11.3 µM | 3.07 µM |  | 4.06 µM | 3.49 µM | 4.09 µM | 1.62 µM |  | 1.62 µM | 1.4 µM | 2.03 µM | 2.98 µM | 1.8 µM | 1.63 µM | 1.46 µM | 
21 | COc1cc(/C=C2\C(=O)N(Cc3ccc(Cl)cc3)c3ccccc32)cc(OC)c1OC | 4.28 µM |  | 3.53 µM | 8.99 µM | 18 µM | 11.1 µM |  | 13.7 µM | 26.6 µM | 12.5 µM | 2.76 µM |  | 1.95 µM | 1.78 µM | 2.59 µM | 4.78 µM | 6.04 µM | 4.95 µM | 3.72 µM | 
22 | COC1=C(N)C(=O)c2nc(-c3nc(C(=O)O)c(C)c(-c4ccc(OC)c(OC)c4O)c3N)ccc2C1=O |  | 0.0206 µM | 0.00424 µM and 0.0268 µM and 0.0181 µM | 0.00884 µM and 0.0161 µM | 0.00354 µM and 0.0228 µM and < 0.011 µM |  | 0.0524 µM | 0.00904 µM and 0.0276 µM and < 0.01 µM |  | 0.0407 µM and < 0.01 µM | 0.00186 µM and 0.000781 µM and < 0.01 µM |  | 0.00121 µM and 0.00468 µM | 0.00124 µM and 0.00653 µM | 0.00175 µM and 0.0149 µM |  | 0.00321 µM and 0.0122 µM and 0.0224 µM |  |  | 
23 | NC(=O)c1ccc2c(c1)-c1nc-2nc2[n-]c(nc3nc(nc4[n-]c(n1)c1ccc(C(N)=O)cc41)-c1ccc(C(N)=O)cc1-3)c1ccc(C(N)=O)cc21.[Co+2] |  | > 50 µM | > 50 µM | > 50 µM | > 50 µM | 33.5 µM | > 50 µM | > 50 µM | > 50 µM | > 50 µM | > 50 µM | 43.5 µM |  | 26.9 µM | > 50 µM | > 50 µM | > 50 µM | 12.7 µM | > 50 µM | 35.9 µM
24 | C=C1C(=O)O[C@H]2[C@H]1CC/C(COC(=O)c1cc(OC)c(OC)c(OC)c1)=C\CC[C@@]1(C)O[C@@H]21 | 3.88 µM |  | 1.57 µM | 3.12 µM | 10.6 µM | 2.24 µM |  | 3.42 µM | 3.12 µM | 11.5 µM | 1.46 µM |  | 1.92 µM | 0.355 µM | 1.24 µM | 2.55 µM | 1.39 µM | 0.895 µM | 2.4 µM | 
25 | Oc1ccc(Cl)cc1C(c1cc(Cl)ccc1O)C(Cl)(Cl)Cl | 3.28 µM |  | 3.3 µM | 3.28 µM | 10.8 µM | 3.67 µM |  | 3.41 µM | 10.3 µM | 3.64 µM | 1.77 µM |  | 1.69 µM | 1.73 µM | 1.67 µM | 3.24 µM | 2.68 µM | 1.69 µM | 1.7 µM | 
26 | NC1NC=NC2C1N=CN2C1OC(CO)C2[O][Sn][O]C21 (configuration not stated) | > 100 µM | > 100 µM | > 100 µM | > 100 µM | > 100 µM | > 100 µM |  | > 100 µM | > 100 µM | > 100 µM | > 100 µM |  | > 100 µM | > 100 µM | 1.98 µM | > 100 µM | > 100 µM | > 100 µM | > 100 µM | > 100 µM
